Earlier results in patent publication US9474524B2, “Packaged antimicrobial medical device having improved shelf life and method of preparing same” (Ethicon, Inc., priority 2002, dated 2016).

Test system: S. aureus
Conditions: suitable growth medium; Bhargava, H. et al, American Journal of Infection Control, June 1996

Oc1cc(Cl)ccc1Oc1ccc(Cl)cc1Cl [2,4,4′-trichloro-2′-hydroxydiphenyl ether]
minimum inhibitory concentration (MIC) against S. aureus: 0.01 ppm
